Test results: patent publication US11730746B2, “17beta-heterocyclyl-digitalis like compounds for the treatment of heart failure” (priority 2018, dated 2023)
pIC50: −log10 of the molar value.

Columns and labels:
Aldosterone = target: T1, Aldosterone (Rattus norvegicus, UniProt P22199); test: Receptor binding 204600
T1 construct: Eurofins 204600
Protocol: (§1) Radioligand binding to a panel of receptors was carried out by Eurofins on crude membrane preparations according to published procedures and by using appropriate reference standard (Eurofins, CVie 101 compound code PT #1207859, study #AB76416, quote #68407-1, for Cvie Therapeutics Limited, Taiwan (R.OC.) on Mar. 5, 2017). CVie 101 was tested at the concentration of 10 μM. No significant interaction was documented, except for Sodium Channel, site 2 from rat (cat #279510), where a significant response (≥50%) was noted (Table 7).

Estrogen ERα = target: T2, Estrogen ERα (Homo sapiens, UniProt P03372); test: Receptor binding 226010
T2 construct: Eurofins (contract assay) 226010
Protocol: as §1

Adrenergic α1B = target: T3, Adrenergic α1B (Rattus norvegicus, UniProt P15823); test: Receptor binding 203200
T3 construct: Eurofins 203200; host or cells: crude membrane preparation
Protocol: as §1

Ryanodine RyR3 = target: T4, Ryanodine RyR3 (Rattus norvegicus, UniProt A0ABK0LPH6); test: Receptor binding 270300
T4 construct: Eurofins (contract assay) 270300
T4 sequence (A0ABK0LPH6 1-4875): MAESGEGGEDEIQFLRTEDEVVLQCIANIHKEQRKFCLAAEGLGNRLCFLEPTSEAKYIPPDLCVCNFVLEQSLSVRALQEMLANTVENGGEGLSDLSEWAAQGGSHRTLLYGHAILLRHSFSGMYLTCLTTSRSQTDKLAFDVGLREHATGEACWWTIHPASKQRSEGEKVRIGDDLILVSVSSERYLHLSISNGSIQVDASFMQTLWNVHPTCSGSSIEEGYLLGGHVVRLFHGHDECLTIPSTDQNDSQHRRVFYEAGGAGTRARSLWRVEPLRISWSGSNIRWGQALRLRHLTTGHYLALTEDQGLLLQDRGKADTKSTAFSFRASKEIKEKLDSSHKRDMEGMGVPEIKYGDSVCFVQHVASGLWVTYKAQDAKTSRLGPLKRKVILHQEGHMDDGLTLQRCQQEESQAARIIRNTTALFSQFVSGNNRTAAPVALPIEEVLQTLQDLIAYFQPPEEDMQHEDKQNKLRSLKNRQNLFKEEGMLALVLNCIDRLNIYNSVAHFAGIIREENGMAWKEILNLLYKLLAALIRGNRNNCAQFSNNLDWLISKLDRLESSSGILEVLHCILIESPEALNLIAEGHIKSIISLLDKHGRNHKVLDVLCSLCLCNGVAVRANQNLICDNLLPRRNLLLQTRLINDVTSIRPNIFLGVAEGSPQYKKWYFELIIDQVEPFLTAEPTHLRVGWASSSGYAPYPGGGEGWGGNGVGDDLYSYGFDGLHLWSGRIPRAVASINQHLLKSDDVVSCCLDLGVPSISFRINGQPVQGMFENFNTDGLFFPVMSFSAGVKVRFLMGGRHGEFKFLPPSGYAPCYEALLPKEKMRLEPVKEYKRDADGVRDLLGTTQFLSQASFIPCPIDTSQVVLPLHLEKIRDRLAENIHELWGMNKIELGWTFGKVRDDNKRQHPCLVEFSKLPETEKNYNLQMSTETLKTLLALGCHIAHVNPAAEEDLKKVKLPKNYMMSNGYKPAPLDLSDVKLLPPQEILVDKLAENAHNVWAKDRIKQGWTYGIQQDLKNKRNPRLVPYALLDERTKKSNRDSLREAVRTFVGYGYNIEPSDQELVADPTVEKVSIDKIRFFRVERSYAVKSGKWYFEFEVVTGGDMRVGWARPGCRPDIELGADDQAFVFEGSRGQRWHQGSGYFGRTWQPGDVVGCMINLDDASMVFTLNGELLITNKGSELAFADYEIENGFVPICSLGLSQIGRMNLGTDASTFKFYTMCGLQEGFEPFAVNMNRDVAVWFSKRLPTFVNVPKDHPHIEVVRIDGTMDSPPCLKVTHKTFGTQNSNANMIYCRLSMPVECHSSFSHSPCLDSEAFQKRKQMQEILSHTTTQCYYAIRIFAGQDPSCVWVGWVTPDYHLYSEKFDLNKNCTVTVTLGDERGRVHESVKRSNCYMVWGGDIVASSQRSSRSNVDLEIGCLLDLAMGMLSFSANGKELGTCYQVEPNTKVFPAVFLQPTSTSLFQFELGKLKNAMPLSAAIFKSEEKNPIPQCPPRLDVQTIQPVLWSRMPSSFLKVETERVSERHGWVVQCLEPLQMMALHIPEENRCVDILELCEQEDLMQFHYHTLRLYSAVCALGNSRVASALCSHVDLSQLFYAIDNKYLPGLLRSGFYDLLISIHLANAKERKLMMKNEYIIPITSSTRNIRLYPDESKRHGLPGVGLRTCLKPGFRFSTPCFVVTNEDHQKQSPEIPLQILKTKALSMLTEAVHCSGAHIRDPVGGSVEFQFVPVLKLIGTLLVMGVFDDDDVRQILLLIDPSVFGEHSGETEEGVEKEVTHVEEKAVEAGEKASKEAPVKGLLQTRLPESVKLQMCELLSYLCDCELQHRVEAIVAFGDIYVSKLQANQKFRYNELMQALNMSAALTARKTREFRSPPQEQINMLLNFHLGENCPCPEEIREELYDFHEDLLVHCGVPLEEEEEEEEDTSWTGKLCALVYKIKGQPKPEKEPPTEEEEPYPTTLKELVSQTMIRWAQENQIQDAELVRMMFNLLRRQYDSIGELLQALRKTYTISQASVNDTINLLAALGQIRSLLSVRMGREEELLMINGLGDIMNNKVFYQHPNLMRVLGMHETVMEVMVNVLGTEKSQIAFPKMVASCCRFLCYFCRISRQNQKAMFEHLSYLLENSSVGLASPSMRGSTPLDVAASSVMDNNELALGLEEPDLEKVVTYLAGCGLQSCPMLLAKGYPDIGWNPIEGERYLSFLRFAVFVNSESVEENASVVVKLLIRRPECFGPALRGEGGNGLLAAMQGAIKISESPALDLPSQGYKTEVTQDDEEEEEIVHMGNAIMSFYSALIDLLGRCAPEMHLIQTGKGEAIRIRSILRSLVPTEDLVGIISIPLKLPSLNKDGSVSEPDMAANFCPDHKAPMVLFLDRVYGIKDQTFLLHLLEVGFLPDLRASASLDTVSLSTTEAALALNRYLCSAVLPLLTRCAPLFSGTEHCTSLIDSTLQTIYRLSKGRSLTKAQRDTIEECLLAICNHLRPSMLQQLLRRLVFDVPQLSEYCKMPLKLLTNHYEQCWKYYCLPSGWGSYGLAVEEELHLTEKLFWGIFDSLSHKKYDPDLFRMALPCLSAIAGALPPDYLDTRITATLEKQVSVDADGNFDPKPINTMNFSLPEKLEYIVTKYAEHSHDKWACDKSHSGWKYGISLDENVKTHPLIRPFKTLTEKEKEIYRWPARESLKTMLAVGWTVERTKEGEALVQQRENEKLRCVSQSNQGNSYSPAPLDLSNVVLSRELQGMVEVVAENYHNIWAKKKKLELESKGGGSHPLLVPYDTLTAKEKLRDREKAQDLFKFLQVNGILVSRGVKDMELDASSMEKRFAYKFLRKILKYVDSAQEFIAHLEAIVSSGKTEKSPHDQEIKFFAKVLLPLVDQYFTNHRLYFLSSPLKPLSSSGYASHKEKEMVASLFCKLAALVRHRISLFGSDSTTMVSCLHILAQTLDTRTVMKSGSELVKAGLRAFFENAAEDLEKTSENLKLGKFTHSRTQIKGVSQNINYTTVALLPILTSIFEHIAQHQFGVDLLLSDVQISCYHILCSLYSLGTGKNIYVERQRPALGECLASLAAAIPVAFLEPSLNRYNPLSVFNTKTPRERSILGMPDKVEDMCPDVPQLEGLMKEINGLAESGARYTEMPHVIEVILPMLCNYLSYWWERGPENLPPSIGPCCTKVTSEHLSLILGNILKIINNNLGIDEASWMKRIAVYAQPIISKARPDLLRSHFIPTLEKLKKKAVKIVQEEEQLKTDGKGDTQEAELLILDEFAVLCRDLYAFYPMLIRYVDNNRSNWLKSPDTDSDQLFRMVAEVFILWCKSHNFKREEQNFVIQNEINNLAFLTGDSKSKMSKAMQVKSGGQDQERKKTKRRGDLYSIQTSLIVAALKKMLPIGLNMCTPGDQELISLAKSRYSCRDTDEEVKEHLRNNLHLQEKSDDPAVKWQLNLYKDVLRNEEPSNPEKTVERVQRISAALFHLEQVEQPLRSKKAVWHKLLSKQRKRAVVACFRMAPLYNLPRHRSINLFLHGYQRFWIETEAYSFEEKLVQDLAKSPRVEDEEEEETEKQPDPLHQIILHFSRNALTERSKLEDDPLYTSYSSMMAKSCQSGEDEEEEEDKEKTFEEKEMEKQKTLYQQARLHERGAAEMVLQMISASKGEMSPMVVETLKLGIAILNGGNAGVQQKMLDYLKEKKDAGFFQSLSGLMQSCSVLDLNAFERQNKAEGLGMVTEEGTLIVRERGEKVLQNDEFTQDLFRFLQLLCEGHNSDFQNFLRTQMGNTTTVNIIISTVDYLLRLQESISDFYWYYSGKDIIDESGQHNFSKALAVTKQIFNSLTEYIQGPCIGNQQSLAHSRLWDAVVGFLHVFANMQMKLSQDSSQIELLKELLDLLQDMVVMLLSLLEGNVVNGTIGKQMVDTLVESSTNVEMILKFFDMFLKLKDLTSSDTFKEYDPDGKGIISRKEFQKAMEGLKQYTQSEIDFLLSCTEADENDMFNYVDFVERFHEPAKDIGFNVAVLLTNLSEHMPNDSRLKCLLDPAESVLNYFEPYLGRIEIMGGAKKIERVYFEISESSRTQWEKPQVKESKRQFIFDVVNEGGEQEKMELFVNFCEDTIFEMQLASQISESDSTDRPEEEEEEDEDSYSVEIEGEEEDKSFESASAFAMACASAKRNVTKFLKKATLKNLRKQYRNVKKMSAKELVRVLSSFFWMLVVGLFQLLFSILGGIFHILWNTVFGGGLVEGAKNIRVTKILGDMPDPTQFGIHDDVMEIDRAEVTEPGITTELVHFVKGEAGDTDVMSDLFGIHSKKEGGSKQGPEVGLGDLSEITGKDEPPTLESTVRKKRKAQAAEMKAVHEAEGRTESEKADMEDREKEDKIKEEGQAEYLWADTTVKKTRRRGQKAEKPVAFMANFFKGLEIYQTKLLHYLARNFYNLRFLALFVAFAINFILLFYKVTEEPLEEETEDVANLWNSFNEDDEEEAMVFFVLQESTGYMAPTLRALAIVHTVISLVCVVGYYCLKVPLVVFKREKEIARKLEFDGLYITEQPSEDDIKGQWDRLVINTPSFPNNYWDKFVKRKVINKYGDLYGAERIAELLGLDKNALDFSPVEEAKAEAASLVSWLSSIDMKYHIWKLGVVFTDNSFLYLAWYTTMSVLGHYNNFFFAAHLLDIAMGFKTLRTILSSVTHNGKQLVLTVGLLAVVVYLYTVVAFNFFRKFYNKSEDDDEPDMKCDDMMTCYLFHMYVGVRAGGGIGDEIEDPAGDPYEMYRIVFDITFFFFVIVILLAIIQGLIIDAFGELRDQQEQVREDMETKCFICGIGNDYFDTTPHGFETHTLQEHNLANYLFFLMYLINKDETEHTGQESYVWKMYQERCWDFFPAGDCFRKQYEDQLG
Protocol: as §1

Phorbol Ester = test: Receptor binding 264500; set-up: species or system mouse; details: 10 μM
Protocol: as §1

[1] = target: T5, CYP19 (CYP450, 19; aromatase) (Homo sapiens, UniProt P11511); test: Eurofins panel 118040; assay type: biochemical; details: crude membrane preparations
T5 construct: Eurofins 118040
Protocol: as §1

Muscarinic M2 = target: T6, Muscarinic M2 (Homo sapiens, UniProt P08172); test: Receptor binding 252710
T6 construct: Eurofins (contract assay) 252710
Protocol: as §1

[2] = tested on: Calcium Channel L-type, Dihydropyridine; test: Receptor binding 214600; set-up: species or system rat; details: 10 μM
Protocol: as §1

Muscarinic M5 = target: T7, Muscarinic M5 (Homo sapiens, UniProt P08912); test: Receptor binding 253010
T7 construct: Eurofins (contract assay) 253010
Protocol: as §1

Dopamine D3 = target: T8, Dopamine D3 (Homo sapiens, UniProt P35462); test: Receptor binding 219800
T8 construct: Eurofins 219800; host or cells: crude membrane preparation
Protocol: as §1

Angiotensin AT1 = target: T9, Angiotensin AT1 (Homo sapiens, UniProt P30556); test: Receptor binding 210030
T9 construct: Eurofins 210030; host or cells: crude membrane preparation
Protocol: as §1

GABAA, Muscimol, Central = test: Receptor binding 226500; set-up: species or system rat; details: 10 μM
Protocol: as §1

Insulin = target: T10, Insulin (Rattus norvegicus, UniProt P15127); test: Receptor binding 243000
T10 construct: Eurofins (contract assay) 243000
Protocol: as §1

dog renal Na,K-ATPase = target: T11, dog renal Na,K-ATPase (Canis lupus familiaris, UniProt P50997); test: Inhibition of dog renal Na,K-ATPase activity (32P-ATP release); assay type: biochemical
T11 construct: incubated with 0.3 μg of purified dog kidney enzyme; from tissue; host or cells: dog kidney outer medulla
Protocol: Kidneys were sliced and the outer medulla was dissected, pooled and suspended (1 g/10 ml) in a sucrose-histidine solution, containing 250 mM sucrose, 30 mM histidine and 5 mM EDTA, pH 7.2 and homogenized. […] The pellet was suspended in the sucrose-histidine buffer and incubated for 20 min with a sodium-dodecyl-sulphate (SDS) solution dissolved in a gradient buffer, containing 25 mM imidazole and 1 mM EDTA, pH 7.5. […] The pellet was suspended in the gradient buffer.
Increasing concentrations of the standard ouabain, or tested compound, were incubated with 0.3 μg of purified dog kidney enzyme for 10 min at 37° C. in 120 μl final volume of a medium, containing 140 mM NaCl, 3 mM MgCl2, 50 mM Hepes-Tris, 3 mM ATP, pH 7.5. […] The inhibitory activity was expressed as percent of the control samples carried out in the absence of ouabain or tested compound.

Progesterone PR-B = target: T12, Progesterone PR-B (Homo sapiens, UniProt P06401); test: Receptor binding 299005
T12 construct: Eurofins (contract assay) 299005
Protocol: as §1

Angiotensin AT2 = target: T13, Angiotensin AT2 (Homo sapiens, UniProt P50052); test: Receptor binding 210120
T13 construct: Eurofins 210120; host or cells: crude membrane preparation
Protocol: as §1

Adrenergic β1 = target: T14, Adrenergic β1 (Homo sapiens, UniProt P08588); test: Receptor binding 204010
T14 construct: Eurofins 204010; host or cells: crude membrane preparation
Protocol: as §1

[3] = tested on: ATPase, Ca++, skeletal muscle, pig; test: Eurofins panel 107480; assay type: biochemical; details: 10 μM
Monoamine Oxidase MAO-A = target: T15, Monoamine Oxidase MAO-A (Homo sapiens, UniProt P21397); test: Eurofins panel 140010; assay type: biochemical
T15 construct: Eurofins 140010
Protocol: as §1

Adrenergic α2A = target: T16, Adrenergic α2A (Homo sapiens, UniProt P08913); test: Receptor binding 203630
T16 construct: Eurofins 203630; host or cells: crude membrane preparation
Protocol: as §1

Dopamine D2s = target: T17, Dopamine D2s (Homo sapiens, UniProt P14416); test: Receptor binding 219700
T17 construct: Eurofins 219700; host or cells: crude membrane preparation
Protocol: as §1

Sigma σ2 = target: T18, Sigma σ2 (Homo sapiens, UniProt Q5BJF2); test: Receptor binding 299007
T18 construct: Eurofins (contract assay) 299007
T18 sequence (Q5BJF2 whole entry): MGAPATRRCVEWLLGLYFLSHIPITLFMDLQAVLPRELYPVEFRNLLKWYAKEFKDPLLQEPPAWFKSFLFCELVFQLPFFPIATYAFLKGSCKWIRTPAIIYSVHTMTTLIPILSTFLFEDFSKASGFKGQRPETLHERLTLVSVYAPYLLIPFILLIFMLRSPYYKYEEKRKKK
Protocol: as §1

Adrenergic α1A = target: T19, Adrenergic α1A (Rattus norvegicus, UniProt P43140); test: Receptor binding 203100
T19 construct: Eurofins 203100; host or cells: crude membrane preparation
Protocol: as §1

[4] = target: T20, Transporter, Norepinephrine (NET) (Homo sapiens, UniProt P23975); test: Receptor binding 204410
T20 construct: Eurofins (contract assay) 204410
Protocol: as §1

Adenosine A1 = target: T21, Adenosine A1 (Homo sapiens, UniProt P30542); test: Receptor binding 200510
T21 construct: Eurofins 200510; host or cells: crude membrane preparation
Protocol: as §1

Phosphodiesterase PDE3 = target: T22, Phosphodiesterase PDE3 (Homo sapiens, UniProt Q14432); test: Eurofins panel 152000; assay type: biochemical
T22 construct: Eurofins 152000
Protocol: as §1

C[C@]12CC[C@H](O)C[C@H]1CCC1C2CC[C@]2(C)[C@@H](c3c[nH]cn3)CC[C@]12O (stereo partly drawn) [CVie 101, 3β-hydroxy-5β-10β-methyl-13β-methyl-14β-hydroxy-17β-(imidazol-4-yl)androstane]
inhibition at 10 µM (Aldosterone): 6%
inhibition at 10 µM (Estrogen ERα): 14%
inhibition at 10 µM (Adrenergic α1B): 0%
inhibition at 10 µM (Ryanodine RyR3): 8%
% inhib (Phorbol Ester): −4%
inhibition at 10 µM [1]: 36%
inhibition at 10 µM (Muscarinic M2): 7%
% inhib [2]: −8%
inhibition at 10 µM (Muscarinic M5): 21%
inhibition at 10 µM (Dopamine D3): 7%
inhibition at 10 µM (Angiotensin AT1): 12%
% inhib (GABAA, Muscimol, Central): −9%
inhibition at 10 µM (Insulin): -7%
pIC50 (dog renal Na,K-ATPase): 6.15
inhibition at 10 µM (Progesterone PR-B): 10%
inhibition at 10 µM (Angiotensin AT2): -1%
inhibition at 10 µM (Adrenergic β1): -4%
% inhib [3]: 14%
inhibition at 10 µM (Monoamine Oxidase MAO-A): 4%
inhibition at 10 µM (Adrenergic α2A): -7%
inhibition at 10 µM (Dopamine D2s): 4%
inhibition at 10 µM (Sigma σ2): 30%
inhibition at 10 µM (Adrenergic α1A): 1%
inhibition at 10 µM [4]: 2%
inhibition at 10 µM (Adenosine A1): -4%
inhibition at 10 µM (Phosphodiesterase PDE3): -16%
